Assay results from patent US11364211B2, “Methods for selecting phosphatase selective and non-selective phosphatase inhibitors” (MEDICAL RESEARCH COUNCIL, priority 2015, dated 2022).
pKd: −log10 of the molar value. Entries after “also recorded” stand apart in the source; their conditions may differ.

Columns and labels:
PPP1R15A = test: Induction of PPP1R15A expression in cells (immunoblot); assay type: cell-based, human; settings: absence of stress
Description: For immunoblots, HeLa cells (80,000 cells/ml) were plated in 12-well plates 24 hours before each experiment. Immediately after the indicated treatments, cells were lysed in 75 μl Laemmli Buffer, boiled at 95° C. for 5 minutes and sonicated. Proteins were separated and analysed as described (Tsaytler et al., Science, 332, 91-94, 2011) with the following antibodies: phospho-elf2α [pS52] and PPP1R15A/GADD34 (10449-1-AP; ProteinTech Group, 1/1000 dilution).
Cells (90,000 cells/ml) were plated in a 24-well plate and treated as indicated. At the end of treatment cells were lysed in 150 μl Laemmli Buffer. Lysates were boiled at 95° C. for 5 minutes, sonicated and resolved on 4-12% Bolt Bis-Tris Plus Gels (Thermo Fisher Scientific). Proteins were transferred to the nitrocellulose membrane using the iBlot 2 system (Thermo Fisher Scientific) and analysed using the following antibodies: e-IF2α-P (44-728G, Thermo Fisher Scientific, 1:1000), e-IF2α (ab5369, Abcam, 1:1000), tubulin (T5168, Sigma-Aldrich, 1:4000), BiP (610978, BD Biosciences Pharmingen, 1:1000), ATF4 (sc-200, Santa Cruz Biotechnology, 1:500), Ppp1r15a (10449-1-AP, Proteintech, 1:1000) and Ppp1r15b (14634-1-AP, Proteintech, 1:1000). Proteins were visualized using ECL Prime (GE Healthcare).

HeLa cells [1] = test: Cytoprotection from tunicamycin ER stress (WST-8 cell viability); assay type: cell-based, human; settings: Tunicamycin 2.5 ug/ml, 0.2-5 μM compound
Description: Cells were plated in 24-well plates at a density of 15,000 (HeLa) or 12,000 cells/ml (MEFs) 24 hours prior to treatment. ER stress was elicited by addition of fresh media containing 2.5 μg/ml tunicamycin (Sigma-Aldrich). Compounds of Example 1 were dissolved in DMSO and added as indicated. DMSO was used as a mock treatment. Cell viability was assessed by measuring the reduction of WST-8 [2-(2-methoxy-4-nitrophenyl)-3-(4-nitrophenyl)-5-(2,4-disulfophenyl)-2H-tetrazolium] into formazan using Cell viability Counting Kit-8 (Dojindo) according to the supplier's recommendation, 48 hours after tunicamycin treatment.
Cells where stressed with Tunicamycin (2.5 ug/ml) in the presence of 0.2-5 μM of a compound of Example 1. Cell viability was measured 3 days after treatment.
Cytoprotection against ER stress can be measured by a suitable assay. In this instance, cytoprotection was measured in HeLa cells in which ER stress was elicited by the addition of media containing tunicamycin, a drug that blocks N-glycosylation, thereby preventing protein folding and inducing the unfolded protein response. Cell viability was then detected in the presence and absence of a compound of Example 1 after a set period of time, by measuring the reduction of WST-8 into formazan using the standard cell viability kit Cell Viability Counting Kit-8 from Dojindo. […]

eIF2α phosphorylation = eIF2α phosphorylation during stress-recovery after DTT wash out; assay type: cell-based; settings: 30 minute 1 mM DTT and wash out
Description: The inventors reasoned that a PPP1R15B inhibitor should prolong eIF2α phosphorylation following stress. To reveal this activity, it was crucial to search for conditions where PPP1R15A is not expressed, to avoid confounding effects. The inventors took advantage of the fast kinetic and reversibility of stress induction by DTT (Bertolotti et al., Nat. Cell. Biol., 2, 326-332, 2000; Jousse et al., 2003) and monitored eIF2α phosphorylation in cells following a 30 minute treatment with 1 mM DTT and a wash out. […] Thus, careful monitoring of the kinetic of eIF2α dephosphorylation in the early phase of a stress-recovery paradigm such as the one described here can be used to identify other PPP1R15B inhibitors.

HeLa cells [2] = test: Translation rates by 35S-methionine labelling in HeLa cells; assay type: cell-based, human; settings: for protein synthesis / translation rates: basal conditions, 10 μM
Description: Cells (90,000 cells/ml) were plated in 12-well plates, treated as indicated, labelled with 100 μCi/ml ^35S-methionine (Hartmann Analytic) for 10 minutes at 37° C., washed with ice-cold PBS and lysed in 120 μl Laemmli Buffer. Lysates were boiled at 95° C. for 5 minutes, sonicated and resolved on 4-12% Bolt Bis-Tris Plus Gels (Thermo Fisher Scientific). Gels were then stained with InstantBlue (Expedeon) and analyzed by phosphorimaging.

db/db mice = test: Blood glucose in obese db/db mice; assay type: in vivo, mouse; settings: 1 mg/kg once a day for three weeks
Description: For treatment of a metabolic disorder, Db/db animals (n=5 per condition) were treated once a day with 1 mg/kg of compound of Example 1 for three weeks. Blood glucose levels were measured with a blood glucose meter (DSI) between 9 and 10 am. Data are mean +/− S.e.m.

R15A [3] = molecular target: T1, R15A (Homo sapiens, UniProt O75807); test: SPR of recombinant R15A binding to immobilized bio-GBZ; settings: isolated R15A fragment, compound immobilized on chip
T1 construct: the cDNAs encoding amino acids 325-636 of PPP1R15A; MBP (N); His (C); made in house; host or cells: E. coli BL21-Gold
T1 sequence (O75807 325-636, stated change not applied): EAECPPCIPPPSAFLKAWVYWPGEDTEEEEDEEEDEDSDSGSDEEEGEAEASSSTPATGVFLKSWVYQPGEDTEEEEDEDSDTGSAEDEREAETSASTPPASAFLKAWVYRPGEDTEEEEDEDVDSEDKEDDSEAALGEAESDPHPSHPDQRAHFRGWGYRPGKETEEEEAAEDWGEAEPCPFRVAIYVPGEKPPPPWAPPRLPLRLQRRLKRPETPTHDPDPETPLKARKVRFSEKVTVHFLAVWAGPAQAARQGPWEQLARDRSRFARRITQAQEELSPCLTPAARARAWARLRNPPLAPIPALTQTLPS
Description: (§1) B. SPR sensorgrams of R15A and R15B binding to bio-GBZ immobilized on the SPR sensor chip surface. R15A/B concentration=0.0244-12.5 μM.
(§2) Here we set out to develop a generalizable strategy to identify new selective phosphatase inhibitors. First, we expressed and purified R15A and R15 B (FIG. 12) and used surface plasmon resonance (SPR) to measure binding affinities of known R15A inhibitors to their targets. We tried to immobilized R15 on SPR chip but this method produced inconsistent results, probably because the natively unstructured proteins precipitate on the chip. We therefore used biotynilated guanabenz (GBZ) (7) that we immobilized on the chip and tested binding of the proteins on the immobilized compound (FIGS. 13A and 13B).
(§3) A Biacore T200 (GE Healthcare) system was used for all experiments and biotinylated GBZ (bio-GBZ) (Tsaylter 2011) or bio-PP1 was captured on a Sensor Chip SA (GE Healthcare). […]

R15A [4] = test: as above; set-up: species or system human; settings: immobilized biotinylated GBZ
Description: as §1, §2, §3

pKd (R15A [3]) | affinity for recombinant R15A fragment relative to R15B (R15A [4]) | SMILES | expression of PPP1R15A (R15A) in cells (PPP1R15A) | expression of PPP1R15A (R15A) in cells (PPP1R15A; listed as TST3) | protection of cells from tunicamycin stress (cell viability) (HeLa cells [1]) | eIF2α phosphorylation following stress (eIF2α phosphorylation) | protein synthesis in the presence of GBZ (HeLa cells [2]; TST3+/- GBZ at 10 μM) | protein synthesis / translation rates (HeLa cells [2]; listed as TST3) | blood glucose (db/db mice) | protein synthesis / translation rates (HeLa cells [2])
– | – | [H]/N=C(\N)NN=Cc1cccc(Cl)c1Cl [Example 1, (E)-2-(2,3-dichlorobenzylidene)hydrazine-1-carboximidamide] | induce PPP1R15A; also recorded: induces expression of R15A | induced expression | protects cells from cytotoxic ER stress | prolongs eIF2α phosphorylation | persistently inhibits protein synthesis; also recorded: rendered persistent | transiently reduces protein synthesis; also recorded: rapidly and transiently decreased | ameliorate a metabolic disorder; also recorded: reduced the pathological high blood glucose | –
4.96 | ten times higher affinity | N=C(N)N/N=C/c1c(Cl)cccc1Cl [Guanabenz, reference compound] | – | – | – | – | – | – | – | did not affect
